Here are results for 2 compounds from patent publication US6846823B2, “Method of treating lower urinary tract disorders” (Dynogen Pharmaceuticals, Inc., priority 2003, dated 2005).

Series [1] relates to bladder capacity during acetic acid irritation. The experiment in a line: Dilute Acetic Acid Model-rats, filling cystometry. In kind it is in vivo, rat. As to conditions: for bladder capacity vs AA/Veh 3: rats, intraduodenal. The source says: Female rats (250-275 g BW, n=8) were anesthetized with urethane (1.2 g/kg) and a saline-filled catheter (PE-50) was inserted into the proximal duodenum for intraduodenal drug administration. A flared-tipped PE-50 catheter was inserted into the bladder dome, via a midline lower abdominal incision, for bladder filling and pressure recording and secured by ligation. The abdominal cavity was moistened with saline and closed by covering with a thin plastic sheet in order to maintain access to the bladder for emptying purposes. Fine silver or stainless steel wire electrodes were inserted into the external urethral sphincter (EUS) percutaneously for electromyography (EMG). Animals were positioned on a heating pad which maintained body temperature at 37° C.
Saline and all subsequent infusates were continuously infused at a rate of about 0.055 ml/min via the bladder filling catheter for about 60 minutes to obtain a baseline of lower urinary tract activity (continuous cystometry; CMG). […] Bladder capacity (ml) was calculated as the flow rate of the bladder filling solution (ml/min) multiplied by the elapsed time between commencement of bladder filling and occurrence of bladder contraction (min).
Following the control period, a 0.25% acetic acid solution in saline (AA) was infused into the bladder to induce bladder irritation. […] Following injection of the third vehicle control, bladder capacity was again measured, as described above but using AA to fill the bladder. […] Bladder capacity was measured as described above using AA to fill the bladder, at 20 and 50 minutes following each subsequent drug treatment.
Bladder capacity was determined for each treatment regimen as described above (flow rate of the bladder filling solution (ml/min) multiplied by the elapsed time between commencement of bladder filling and occurrence of bladder contraction (min)) and converted to % Bladder Capacity normalized to the last vehicle measurement of the AA/Veh 3 treatment group. Data were then analyzed by non-parametric ANOVA for repeated measures (Friedman Test) with Dunn's Multiple Comparison test. […]

Series [2] shares this test system. As to the kind of experiment: Dilute Acetic Acid Model-Cats, cystometry. The format is in vivo, cat. Here is the method:
Six alpha-chloralose anesthetized (50-100 mg/kg) normal female cats (2.5-3.5 kg; Harlan) were utilized in this study.
MCI-225 was dissolved in 5% methylcellulose in water at 3.0, 10.0 or 30 mg/ml Animals were dosed by volume of injection=body weight in kg.
Female cats (2.5-3.5 kg; Harlan) had their food removed the night before the study. The following morning, the cats were anesthetized with isoflurane and prepped for surgery using aseptic technique. Polyethylene catheters were surgically placed to permit the measurement of bladder pressure, urethral pressure, arterial pressure, respiratory rate as well as for the delivery of drugs. Fine wire electrodes were implanted alongside the external urethral anal sphincter. Following surgery, the cats were slowly switched from the gas anesthetic isoflurane (2-3.5%) to alpha-chloralose (50-100 mg/kg). During control cystometry, saline was slowly infused into the bladder (0.5-1.0 ml/min) for 1 hour. The control cystometry was followed by 0.5% acetic acid in saline for the duration of the experiment. After assessing the cystometric variables under these baseline conditions, the effects of MCI-225 on bladder capacity were determined via a 3 point dose response protocol.
Data was analyzed using a non-parametric One-Way ANOVA (Friedman Test) with the post-hoc Dunn's multiple comparison t test. P<0.05 was considered significant.

The target in series [3] is T1, Monoamine Oxidase-A (MAO-A) (Homo sapiens, UniProt P21397).
T1 sequence (P21397 1-527): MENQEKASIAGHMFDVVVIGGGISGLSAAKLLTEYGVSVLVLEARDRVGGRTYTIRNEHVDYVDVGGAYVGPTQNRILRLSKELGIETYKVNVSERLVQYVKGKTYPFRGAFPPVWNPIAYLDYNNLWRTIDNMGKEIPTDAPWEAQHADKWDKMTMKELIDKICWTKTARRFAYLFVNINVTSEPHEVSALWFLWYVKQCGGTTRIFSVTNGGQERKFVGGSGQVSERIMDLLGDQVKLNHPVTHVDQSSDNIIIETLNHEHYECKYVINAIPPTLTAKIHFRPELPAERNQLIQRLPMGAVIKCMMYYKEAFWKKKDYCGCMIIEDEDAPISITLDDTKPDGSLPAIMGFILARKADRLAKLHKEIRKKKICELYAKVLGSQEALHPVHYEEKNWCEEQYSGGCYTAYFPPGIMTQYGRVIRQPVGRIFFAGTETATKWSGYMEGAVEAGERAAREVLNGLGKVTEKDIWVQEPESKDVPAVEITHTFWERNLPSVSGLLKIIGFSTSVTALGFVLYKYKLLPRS
The following applies: cited from earlier work.

Series [4] deals with T2, Monoamine Oxidase-B (MAO-B) (Homo sapiens, UniProt P27338).
T2 sequence (P27338 1-520): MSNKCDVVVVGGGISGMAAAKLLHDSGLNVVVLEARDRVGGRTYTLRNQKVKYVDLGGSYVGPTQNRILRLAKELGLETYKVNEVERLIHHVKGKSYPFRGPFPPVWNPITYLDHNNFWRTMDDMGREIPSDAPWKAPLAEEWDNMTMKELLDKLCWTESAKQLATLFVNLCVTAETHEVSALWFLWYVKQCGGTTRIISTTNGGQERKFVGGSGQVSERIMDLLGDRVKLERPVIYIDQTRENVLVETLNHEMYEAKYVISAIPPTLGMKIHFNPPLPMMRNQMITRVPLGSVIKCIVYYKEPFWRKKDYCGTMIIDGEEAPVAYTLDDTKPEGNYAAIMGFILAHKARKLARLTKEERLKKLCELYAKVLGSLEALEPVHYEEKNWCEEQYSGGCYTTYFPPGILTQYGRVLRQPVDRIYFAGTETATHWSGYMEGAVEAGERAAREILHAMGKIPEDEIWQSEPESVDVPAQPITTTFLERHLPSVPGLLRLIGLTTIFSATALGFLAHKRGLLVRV
The following applies: cited from earlier work.

Series [5] concerns the target T3, 5-HT3 receptor (Mus musculus, UniProt P23979).
T3 construct: host or cells: N1E-115 mouse neuroblastoma cells
T3 sequence (P23979 24-489): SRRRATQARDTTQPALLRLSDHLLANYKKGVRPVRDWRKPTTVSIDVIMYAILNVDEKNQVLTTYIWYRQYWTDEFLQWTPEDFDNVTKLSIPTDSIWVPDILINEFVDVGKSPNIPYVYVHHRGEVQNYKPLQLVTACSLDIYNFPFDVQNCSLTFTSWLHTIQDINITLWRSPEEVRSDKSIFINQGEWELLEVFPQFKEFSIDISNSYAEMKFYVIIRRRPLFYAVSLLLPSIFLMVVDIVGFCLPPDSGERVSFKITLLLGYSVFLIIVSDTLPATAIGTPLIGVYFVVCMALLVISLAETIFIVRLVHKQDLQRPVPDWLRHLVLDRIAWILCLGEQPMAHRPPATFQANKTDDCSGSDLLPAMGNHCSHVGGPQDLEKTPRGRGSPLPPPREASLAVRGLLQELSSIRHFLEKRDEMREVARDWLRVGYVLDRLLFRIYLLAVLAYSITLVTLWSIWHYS
The following applies: radioligand binding; read-out: Ki, affinity for the 5-HT3 receptor; cited from earlier work.

The test system of series [6] is α1, α2, β1, β2, 5-HT1, 5-HT1A, 5-HT1C, 5-HT2, 5-HT4, 5-HT6, 5-HT7, D1, D2, Muscarinic, M1, M2, M3, Nicotonic, H1, H2, GABA-A, GABA-B, BZP, Opiate …. As to conditions: all receptors of the panel other than 5-HT3; read-out: IC50, binding to the additional receptors tested; cited from earlier work.
Series [7] concerns muscarinic receptors. As to conditions: cited from earlier work.
For series [8] the following is noted: preclinical and clinical studies, cited from earlier work.

As usually defined, the Ki is a dissociation constant, usually derived from enzyme kinetics or from competition with a known ligand. By IC50 is commonly meant the concentration that gives 50% inhibition. For the compound `Cc1cc2c(-c3ccccc3F)nc(N3CCNCC3)nc2s1` [MCI-225, 4-(2-fluorophenyl)-6-methyl-2-(1-piperazinyl)thieno[2,3-d]pyrimidine], the “bladder capacity (% normalized to AA/Veh 3)” value in series [1] (rats n=8, intraduodenal, cumulative 3-30 mg/kg, p=0.0005 Friedman test) is on record as “dose-dependent increase in bladder capacity”. Also, the “bladder capacity vs AA/Veh 3” value in series [1] (10 mg/kg, p<0.05 Dunn's test) is on record as “significantly higher than AA/Veh 3”; in series [1] (30 mg/kg, p<0.001 Dunn's test) it was “significantly higher than AA/Veh 3”. The “bladder capacity following acetic acid irritation” value in series [2] (cats n=6, 3 point dose response 3, 10, 30 mg/kg, P<0.0103) was “significant dose-dependent increase in bladder capacity”. Also, in series [2] (cats, 30 mg/kg, P<0.05), the “bladder capacity, individual dose significance” value is given as “individual dose significance attained”. The “inhibition of MAO-A activity” value in series [3] is “did not inhibit”. For the same compound, in series [4], the “inhibition of MAO-B activity” value is listed as “did not inhibit”. In addition, the Ki in series [5] is under 100 nM. The IC50 in series [6] is over 1000 nM. The anticholinergic activity result in series [7] is recorded as “substantially no anticholinergic activity”.

As for `CC(OC(=O)NCC1(CC(=O)O)CCCCC1)OC(=O)C(C)C` (stereo not drawn) [XP13512], in series [8] (broad range of oral doses), the “blood levels of gabapentin after XP13512” value is on record as “dose proportional blood levels of gabapentin”. For the same compound, in series [8], the “absorption from the large intestine” value is given as “absorbed efficiently from the large intestine”.
